Data on 4 compounds can be found in the NIST ThermoML archive (doi:10.1016/j.fluid.2014.08.002).

The conditions of the data set: 298.15 K; 101.3 kPa; Liquid; Vibrating tube method.

Numbers after ± are expanded uncertainties.

By mass density is commonly meant mass per unit of volume. On to `CC1(C)OCCO1` [2,2-dimethyl-1,3-dioxolane], for which the mass density came out at 944.2 ± 0.3 kg/m3. For the compound `CCCCCCC` [heptane], the mass density worked out at 683.8 ± 0.3 kg/m3. Regarding `Cc1ccccc1` [toluene], the mass density was 866.9 ± 0.2 kg/m3.

As for `CCO` [ethanol], the mass density amounted to 789.5 ± 0.2 kg/m3.
